Experimental data as given in PubChem BioAssay (NCI).
Several values for one entry are separate records, joined by “and”; a condition that tells them apart may be missing. Equal values may be shown once.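 Protocol summary: plate cells (96-well), add compound at 5 concentrations, incubate 48 h, interpolate endpoints linearly. GI50 = concentration required for 50% inhibition of growth. TGI denotes the concentration required for complete inhibition of growth.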

Columns and labels:
Test in all cases: NCI-60 cell line screen, 48 h
DU-145 prostate = test system: DU-145 prostate
TK-10 renal = test system: TK-10 renal
U251 CNS = test system: U251 CNS
NCI-H522 lung = test system: NCI-H522 lung
RXF 393 renal = test system: RXF 393 renal
SN12C renal = test system: SN12C renal
HCT-116 colon = test system: HCT-116 colon
SK-MEL-5 melanoma = test system: SK-MEL-5 melanoma
NCI/ADR-RES ovarian = test system: NCI/ADR-RES ovarian
786-0 renal = test system: 786-0 renal

| Structure (SMILES) | GI50 (DU-145 prostate) | TGI (DU-145 prostate) | GI50 (TK-10 renal) | TGI (TK-10 renal) | GI50 (U251 CNS) | TGI (U251 CNS) | GI50 (NCI-H522 lung) | TGI (NCI-H522 lung) | GI50 (RXF 393 renal) | TGI (RXF 393 renal) | GI50 (SN12C renal) | TGI (SN12C renal) | GI50 (HCT-116 colon) | TGI (HCT-116 colon) | GI50 (SK-MEL-5 melanoma) [µM] | TGI (SK-MEL-5 melanoma) [µM] | GI50 (NCI/ADR-RES ovarian) | TGI (NCI/ADR-RES ovarian) | GI50 (786-0 renal) | TGI (786-0 renal) |
| --- | --- | --- | --- | --- | --- | --- | --- | --- | --- | --- | --- | --- | --- | --- | --- | --- | --- | --- | --- | --- |
| O=C(Nc1nn2c(-c3cc(C(F)(F)F)cc(C(F)(F)F)c3)nnc2s1)C1CCCC1 | 1.95 µM | > 100 µM | 1.79 µM | > 100 µM | 0.854 µM | > 100 µM | 0.277 µM | 2.29 µM | 1.62 µM | > 33.9 µM | 0.454 µM | > 36.7 µM | 0.518 µM | > 100 µM | 0.251 | 1.74 | 0.641 µM | > 28.5 µM | 0.663 µM | > 32.8 µM |
| O=[N+]([O-])c1cc([N+](=O)[O-])c(C(F)(F)F)cc1NN=C(c1ccc(O)cc1)c1ccc(O)cc1 | 3.79 µM | 13.8 µM | 6.06 µM | 33.4 µM | 2.92 µM | 11.7 µM | 3.82 µM | 39.7 µM | 2.64 µM | 8.47 µM | 3.3 µM | 13.4 µM | 2.67 µM | 11.9 µM | 1.64 | 3 | 4.44 µM | 65.4 µM | 2.67 µM | 9.54 µM |
| CCNC(=O)C#Cc1ccc2c(C(=Nc3ccc(CN(C)C)cc3)c3ccccc3)c(O)[nH]c2c1 | 1.26 µM | > 10 µM | 0.593 µM | > 5.41 µM | 0.376 µM | 2.9 µM | 1.26 µM | > 5.39 µM | 0.123 µM | 0.703 µM | 0.0671 µM | 1.59 µM | 0.0147 µM | 1.07 µM | 0.307 | 1.84 | 1.7 µM | > 10 µM | 0.356 µM | 2 µM |
| NC(N)=NS(=O)(=O)c1ccc(N=Nc2c(O)c(C(=O)O)cc3ccccc23)cc1 |  | > 100 µM |  | > 100 µM |  | > 100 µM |  | > 100 µM |  | > 100 µM |  | > 100 µM |  | > 100 µM |  | > 100 |  | > 100 µM |  | > 100 µM |
| C=CC(=O)Nc1cc(Nc2nccc(-c3cn(C)c4ccccc34)n2)c(OC)cc1N(C)CCN(C)C | 1.76 µM and 1.33 µM | 12 µM and > 10 µM | 0.0615 µM and 0.0824 µM | 15.5 µM and 2.02 µM | 1.63 µM and 1.71 µM | 3.26 µM and 3.35 µM | 0.169 µM and 0.0657 µM | 1.98 µM and 1.53 µM | 1.45 µM and 1.34 µM | 3.1 µM and 2.98 µM | 2.2 µM and 1.2 µM | 8.58 µM and 4.36 µM | 1.72 µM and 1.51 µM | 3.3 µM and 2.96 µM | 1.72 | 3.13 | 1.85 µM and 1.45 µM | 9.57 µM and 8.18 µM | 1.4 µM and 1.38 µM | 2.94 µM and 2.9 µM |
| COc1cc2c(cc1OC)C(Cl)C(c1ccc(F)cc1)=C2Cl (centres undefined) |  | 37.5 µM |  | 28.5 µM |  | 26.6 µM |  | 21.8 µM |  | 30.1 µM |  | 27 µM |  | 25.6 µM |  | 27.4 |  | 34.5 µM |  | 24.8 µM |
| COc1ccccc1NC(=O)c1cc2cc(Br)ccc2cc1O | 3.28 µM | 14 µM | 4.31 µM | 15.3 µM | 2.65 µM | 9.58 µM | 1.86 µM | 7 µM | 2.36 µM | 7.11 µM | 2.73 µM | 9.64 µM | 2.8 µM | 10.3 µM | 1.46 | 3.11 | 2.75 µM | 12.1 µM | 3.52 µM | 11.2 µM |
| O=C(O)C(Cl)Cl | 5720 µM and > 10000 µM | > 10000 µM | > 10000 µM | > 10000 µM | 7690 µM and > 10000 µM | > 10000 µM | 8040 µM and > 10000 µM | > 10000 µM | 5140 µM and > 10000 µM | > 10000 µM | 8180 µM and > 10000 µM | > 10000 µM | 6700 µM and > 10000 µM | > 10000 µM | > 10000 | > 10000 | 7660 µM and > 10000 µM | > 10000 µM | 5690 µM and > 10000 µM | > 10000 µM |
| O=C1c2c(F)c(F)c(F)c(F)c2C(=O)N1c1ccc(F)cc1F | 8 µM | 23.4 µM | 13.7 µM | > 51 µM | 2.55 µM | 7.95 µM | 6.58 µM | > 25 µM | 7.68 µM | > 46.7 µM | 2.95 µM | 10.1 µM | 3.71 µM | 14.2 µM | 13.1 | 30.6 | 7.55 µM | 30.5 µM | 11 µM | > 43.8 µM |
| C/C=C/[C@@H]1O[C@@H]2COC(=O)C2=C[C@@H]1O | 5.03 µM | 18.8 µM | 6.43 µM | 20.5 µM | 18.9 µM | 38.3 µM | 3.95 µM | > 29.1 µM | 15 µM | 39.7 µM | 15.4 µM | 31.4 µM | 2.06 µM | 8.79 µM | 16.7 | 31.5 | 25.9 µM | 60.5 µM | 6.79 µM | 21.1 µM |
| Br[Se]c1ccccn1 |  | 30.8 µM |  | 34.5 µM |  | 29 µM |  | 30.4 µM |  | 31 µM |  | 33.1 µM |  | 33 µM |  | 28.9 |  | 61.6 µM |  | 32.6 µM |
| O=C1CSC(=S)N1/N=C/c1ccc(Cl)c([N+](=O)[O-])c1 |  | > 100 µM |  | > 100 µM |  | 35.3 µM |  | 36.8 µM |  | > 100 µM |  | 56.3 µM |  | 48.2 µM |  | > 100 |  | 52.5 µM |  | > 100 µM |
| CC(=O)OC1(C)N=NC2(CCCCC2)O1 (centres undefined) |  | > 100 µM |  | > 100 µM |  | > 100 µM |  | > 100 µM |  | > 100 µM |  | > 100 µM |  | > 100 µM |  | > 100 |  | > 100 µM |  | > 100 µM |
| COCCn1cc(-c2nc(-c3cc4cccnc4[nH]3)cs2)c2cc(OC)ccc21 | 3.96 µM | 56.1 µM | 1.07 µM | 10.7 µM | 3.6 µM | > 59.3 µM | 2.99 µM | 21 µM | 0.95 µM | 5.41 µM | 4.64 µM | > 100 µM | 3.49 µM | 16 µM | 4.47 | 21.4 | 2.95 µM | 23.8 µM | 3.04 µM | 20.9 µM |
| CC(C)(C)[Si](C)(C)OC1[C@@H](O[Si](C)(C)C(C)(C)C)[C@@H](CNC(=O)NC(=O)C(F)(F)F)O[C@H]1n1cnc2c(NC(=O)Nc3ccccc3)ncnc21 (some centres undefined) | 6.52 µM | 13.2 µM | 9.77 µM | 17.2 µM | 7.4 µM | 14.5 µM | 9.14 µM | 16.6 µM | 1.3 µM | 4.25 µM | 1.96 µM | 8.22 µM | 2.46 µM | 8.47 µM | 2.72 | 9.18 | 7.56 µM | 14.7 µM | 6.58 µM | 13.4 µM |
| CC(C)[C@@H]1NC(=O)[C@]2(C)CSC(=N2)c2ccnc(c2)CNC(=O)C[C@@H](/C=C/CCS)OC1=O | 0.231 µM | > 100 µM | 0.178 µM | 1.64 µM | 0.107 µM | 0.73 µM | 0.249 µM | 5.14 µM | 0.0828 µM | 0.562 µM | 0.711 µM | > 100 µM | 0.115 µM | 1.09 µM | 0.0715 | 0.323 | 2.46 µM | > 61.6 µM | 0.911 µM | > 28 µM |
| O=C1c2ccccc2C(=O)c2c(/C=C\N3CCCCC3)ccnc21 |  | 2.96 µM |  | 34.4 µM |  | 14.5 µM |  | 13.3 µM |  | 23.1 µM |  | 4.14 µM |  | 5.89 µM |  | 1.1 |  | > 95.4 µM |  | 31.3 µM |
| CCOc1ccc(NC2=CC(=O)C(=O)c3ccccc32)cc1 |  | 5.05 µM |  | 21.6 µM |  | 13.1 µM |  | 3.39 µM |  | 14.6 µM |  | 3.31 µM |  | 10.1 µM |  | 2.95 |  | 11.3 µM |  | 13.7 µM |
| C=C1C[C@H](O)[C@H](Br)C(C)(C)[C@@]12CCC(C)=C(Cl)C2 | 0.276 µM | 3.25 µM | 0.373 µM | 2.89 µM | 0.367 µM | 12.2 µM | 0.416 µM | 3.46 µM | 0.35 µM | 4.12 µM | 0.416 µM | 6.61 µM | 0.32 µM |  | 0.253 | 0.866 | 0.247 µM | 11.2 µM | 0.57 µM | 11.7 µM |
| CC(=O)N[C@@H](Cc1ccc(OP(=O)(O)O)cc1)C(=O)N[C@H]1CCC(=O)N2CCC[C@@H](C(=O)Nc3cccc4ccccc34)N2C1=O | > 25 µM | > 25 µM | > 25 µM | > 25 µM | > 25 µM | > 25 µM | > 25 µM | > 25 µM | > 25 µM | > 25 µM | > 25 µM | > 25 µM | > 25 µM | > 25 µM | > 25 | > 25 | > 25 µM | > 25 µM | > 25 µM | > 25 µM |
| NC(=S)N/N=C1\c2cc(Cl)ccc2-c2c1cc(Cl)cc2[N+](=O)[O-] | 10.8 µM | > 100 µM | 20.5 µM | > 100 µM | 2.99 µM | 14.9 µM | 4.11 µM | 48.6 µM | 10.4 µM | 89.4 µM | 4.58 µM | > 100 µM | 2.89 µM | 27.4 µM | 2.77 | 9.28 | 4.76 µM | > 100 µM | 5.41 µM | 91.3 µM |
